According to US5753648A, “Tricyclic benzazepine vasopressin antagonists” (American Cyanamid Company, priority 1996, dated 1998):

What was measured:
[1] = target: T1, Vasopressin V1 receptor subtype in Human Platelet Membranes (Homo sapiens, UniProt P37288); test: Binding to Vasopressin V1 receptor subtype in Human Platelet Membranes; details: * V1 receptor subtype in human platelet
T1 construct: Frozen platelet rich plasma (PRP), received from the Hudson Valley Blood Services, are thawed to room temperature; tissue Hudson Valley Blood Services; host or cells: human platelets (platelet rich plasma)
Procedure: Radioligand Binding Experiments with Human Platelet Membranes
Platelet Source: Hudson Valley Blood Services,
Westchester Medical Center, Valhalla, N.Y.
Platelet Membrane Preparation
Frozen platelet rich plasma (PRP), received from the Hudson Valley Blood Services, are thawed to room temperature. The tubes containing the PRP are centrifuged at 16,000×g for 10 min. at 4° C. and the supernatant fluid discarded. The platelets resuspended in an equal volume of 50.0 mM Tris.HCl, pH 7.5 containing 120 mM NaCl and 20.0 mM EDTA. The suspension is recentrifuged at 16,000×g for 10 min. This washing step is repeated one more time. The wash discarded and the lysed pellets homogenized in low ionic strength buffer of Tris.HCl, 5.0 mM, pH 7.5 containing 5.0 mM EDTA. The homogenate is centrifuged at 39,000×g for 10 min. The resulting pellet is resuspended in Tris.HCl buffer, 70.0 mM, pH 7.5 and recentrifuged at 39,000×g for 10 min. The final pellet is resuspended in 50.0 mM Tris.HCl buffer pH 7.4 containing 120 mM NaCl and 5.0 mM KCl to give 1.0-2.0 mg protein per ml of suspension.
Binding to Vasopressin V1 receptor subtype in Human Platelet Membranes
In wells of 96 well format microtiter plate, add 100 μl of 50.0 mM Tris.HCl buffer containing 0.2% BSA and a mixture of protease inhibitors (aprotinin, leupeptin etc.). Then add 20 μl of [^3 H]Ligand (Manning or Arg^8 Vasopressin), to give final concentrations ranging from 0.01 to 10.0 nM. Initiate the binding by adding 80.0 μl of platelet suspension (approx. 100 μg protein). Mix all reagents by pipetting the mixture up and down a few times. Non specific binding is measured in the presence of 1.0 μM of unlabeled ligand (Manning or Arg^8 Vasopressin). Let the mixture stand undisturbed at room temperature for ninety (90) min. Upon this time, rapidly filter off the incubate under vacuum suction over GF/B filters, using a Brandel® Harvester. Determine the radioactivity caught on the filter disks by the addition of liquid scintillant and counting in a liquid scintillator.

[2] = target: T2, Rat Kidney Medullary V2 Receptors (Rattus norvegicus, UniProt Q00788); test: biochemical; format: binding
T2 construct: Medullary tissues from rat kidneys are dissected out; from tissue; host or cells: rat kidney medulla membranes
T2 sequence (Q00788 whole entry): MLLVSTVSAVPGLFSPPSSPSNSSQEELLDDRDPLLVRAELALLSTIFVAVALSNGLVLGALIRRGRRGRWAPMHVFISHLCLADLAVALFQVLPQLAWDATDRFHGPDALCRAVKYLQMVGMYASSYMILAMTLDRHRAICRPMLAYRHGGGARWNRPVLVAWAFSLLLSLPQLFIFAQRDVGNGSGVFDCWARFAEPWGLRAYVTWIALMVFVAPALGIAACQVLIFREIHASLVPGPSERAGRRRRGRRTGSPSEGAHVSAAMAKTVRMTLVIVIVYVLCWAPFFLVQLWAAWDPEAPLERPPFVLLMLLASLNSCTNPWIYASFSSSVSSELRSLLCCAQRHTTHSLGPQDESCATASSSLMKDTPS

T1 sequence (P37288 whole entry): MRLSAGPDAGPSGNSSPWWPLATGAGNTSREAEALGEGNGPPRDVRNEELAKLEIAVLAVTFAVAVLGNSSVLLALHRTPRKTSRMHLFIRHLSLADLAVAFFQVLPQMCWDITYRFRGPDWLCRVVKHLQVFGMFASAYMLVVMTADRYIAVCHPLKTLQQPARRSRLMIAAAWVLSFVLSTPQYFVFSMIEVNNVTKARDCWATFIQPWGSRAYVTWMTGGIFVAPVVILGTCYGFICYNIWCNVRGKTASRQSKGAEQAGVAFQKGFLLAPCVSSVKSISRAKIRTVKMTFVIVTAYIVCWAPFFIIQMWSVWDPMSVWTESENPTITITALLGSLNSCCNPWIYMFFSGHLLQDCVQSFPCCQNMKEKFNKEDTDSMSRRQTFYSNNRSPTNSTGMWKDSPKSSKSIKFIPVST

- IC50 [1]: 20 nM
- IC50 [2]: 4 nM
Compound: Cc1ccc(F)cc1C(=O)Nc1ccc(C(=O)N2Cc3cccn3Cc3ccccc32)cn1 [Example 1, N-[5-(5H-Pyrrolo[2,1-c][1,4]benzodiazetin-10(11H)-ylcarbonyl)-2-pyridinyl]-5-fluoro-2-methylbenzamide]
